Source: ChEMBL document CHEMBL4138123, “Design, synthesis and biological evaluation of novel pyrazolochalcones as potential modulators of PI3K/Akt/mTOR pathway and inducers of apoptosis in breast cancer cells” (Eur J Med Chem, 2017)

Assays:
TK-10 = assay: Cytotoxicity against human TK10 cells assessed as cell growth at 100 uM after 48 hrs by sulforhodamine B assay relative to control; format: functional; settings: TK-10, 48 h, read-out: Activity
ACHN [1] = assay: Cytotoxicity against human ACHN cells assessed as cell growth at 1 uM after 48 hrs by sulforhodamine B assay relative to control; format: functional; settings: read-out: Activity
HCC 2998 [2] = assay: Cytotoxicity against human HCC2998 cells assessed as cell growth at 100 uM after 48 hrs by sulforhodamine B assay relative to control; format: functional; settings: HCC 2998, 48 h, read-out: Activity
NCI-H23 = assay: Cytotoxicity against human NCI-H23 cells assessed as cell growth at 100 uM after 48 hrs by sulforhodamine B assay relative to control; format: functional; settings: NCI-H23, 48 h, read-out: Activity
HCT-116 = assay: Cytotoxicity against human HCT116 cells assessed as cell growth at 0.1 uM after 48 hrs by sulforhodamine B assay relative to control; format: functional; settings: HCT-116, 48 h, read-out: Activity
NCI-H522 = assay: Cytotoxicity against human NCI-H522 cells assessed as growth inhibition after 48 hrs by sulforhodamine B assay; format: functional; settings: NCI-H522, 48 h
NCI-H322M = assay: Cytotoxicity against human NCI-H322M cells assessed as cell growth at 10 uM after 48 hrs by sulforhodamine B assay relative to control; format: functional; settings: read-out: Activity
MDA-MB-231 [3] = assay: Cytotoxicity against human MDA-MB-231 cells assessed as cell growth at 1 uM after 48 hrs by sulforhodamine B assay relative to control; format: functional; settings: MDA-MB-231, 48 h, read-out: Activity
ACHN [4] = assay: Cytotoxicity against human ACHN cells assessed as growth inhibition after 48 hrs by sulforhodamine B assay; format: functional
SN12C = assay: Cytotoxicity against human SN12C cells assessed as cell growth at 100 uM after 48 hrs by sulforhodamine B assay relative to control; format: functional; settings: read-out: Activity
HCC 2998 [5] = assay: Cytotoxicity against human HCC2998 cells assessed as cell growth at 0.01 uM after 48 hrs by sulforhodamine B assay relative to control; format: functional; settings: HCC 2998, 48 h, read-out: Activity
BT-549 = assay: Cytotoxicity against human BT549 cells assessed as cell growth at 1 uM after 48 hrs by sulforhodamine B assay relative to control; format: functional; settings: BT-549, 48 h, read-out: Activity
DU-145 = assay: Cytotoxicity against human DU145 cells assessed as cell growth at 0.01 uM after 48 hrs by sulforhodamine B assay relative to control; format: functional; settings: DU-145, 48 h, read-out: Activity
MCF7 = assay: Cytotoxicity against human MCF7 cells assessed as cell growth at 1 uM after 48 hrs by sulforhodamine B assay relative to control; format: functional; settings: MCF7, 48 h, read-out: Activity
MDA-MB-468 = assay: Cytotoxicity against human MDA-MB-468 cells assessed as growth inhibition after 48 hrs by sulforhodamine B assay; format: functional; settings: MDA-MB-468, 48 h
OVCAR-3 = assay: Cytotoxicity against human OVCAR3 cells assessed as cell growth at 0.1 uM after 48 hrs by sulforhodamine B assay relative to control; format: functional; settings: OVCAR-3, 48 h, read-out: Activity
786-0 = assay: Cytotoxicity against human 786-0 cells assessed as cell growth at 10 uM after 48 hrs by sulforhodamine B assay relative to control; format: functional; settings: 786-0, 48 h, read-out: Activity
Malme-3M = assay: Cytotoxicity against human MALME-3M cells assessed as growth inhibition after 48 hrs by sulforhodamine B assay; format: functional
OVCAR-8 = assay: Cytotoxicity against human OVCAR8 cells assessed as growth inhibition after 48 hrs by sulforhodamine B assay; format: functional; settings: OVCAR-8, 48 h
MOLT-4 = assay: Cytotoxicity against human MOLT4 cells assessed as cell growth at 0.1 uM after 48 hrs by sulforhodamine B assay relative to control; format: functional; settings: MOLT-4, 48 h, read-out: Activity
UACC-257 [6] = assay: Cytotoxicity against human UACC257 cells assessed as cell growth at 100 uM after 48 hrs by sulforhodamine B assay relative to control; format: functional; settings: UACC-257, 48 h, read-out: Activity
U-251 = assay: Cytotoxicity against human U251 cells assessed as cell growth at 1 uM after 48 hrs by sulforhodamine B assay relative to control; format: functional; settings: U-251, 48 h, read-out: Activity
SF-539 = assay: Cytotoxicity against human SF539 cells assessed as cell growth at 100 uM after 48 hrs by sulforhodamine B assay relative to control; format: functional; settings: SF-539, 48 h, read-out: Activity
COLO 205 = assay: Cytotoxicity against human COLO205 cells assessed as cell growth at 1 uM after 48 hrs by sulforhodamine B assay relative to control; format: functional; settings: COLO 205, 48 h, read-out: Activity
K562 = assay: Cytotoxicity against human K562 cells assessed as cell growth at 1 uM after 48 hrs by sulforhodamine B assay relative to control; format: functional; settings: K562, 48 h, read-out: Activity
UACC-257 [7] = assay: Cytotoxicity against human UACC257 cells assessed as cell growth at 10 uM after 48 hrs by sulforhodamine B assay relative to control; format: functional; settings: UACC-257, 48 h, read-out: Activity
T47D = assay: Cytotoxicity against human T47D cells assessed as cell growth at 1 uM after 48 hrs by sulforhodamine B assay relative to control; format: functional; settings: read-out: Activity
UO-31 = assay: Cytotoxicity against human UO31 cells assessed as cell growth at 0.01 uM after 48 hrs by sulforhodamine B assay relative to control; format: functional; settings: UO-31, 48 h, read-out: Activity
MDA-MB-231 [8] = assay: Cytotoxicity against human MDA-MB-231 cells assessed as growth inhibition after 48 hrs by MTT assay; format: functional, cell-based; settings: MDA-MB-231, 48 h
SF-268 = assay: Cytotoxicity against human SF268 cells assessed as cell growth at 0.1 uM after 48 hrs by sulforhodamine B assay relative to control; format: functional; settings: SF-268, 48 h, read-out: Activity
SK-MEL-5 [9] = assay: Cytotoxicity against human SK-MEL-5 cells assessed as cell growth at 100 uM after 48 hrs by sulforhodamine B assay relative to control; format: functional; settings: SK-MEL-5, 48 h, read-out: Activity
HOP-62 = assay: Cytotoxicity against human HOP62 cells assessed as cell growth at 1 uM after 48 hrs by sulforhodamine B assay relative to control; format: functional; settings: HOP-62, 48 h, read-out: Activity
SK-MEL-5 [10] = assay: Cytotoxicity against human SK-MEL-5 cells assessed as cell growth at 0.01 uM after 48 hrs by sulforhodamine B assay relative to control; format: functional; settings: SK-MEL-5, 48 h, read-out: Activity
M14 = assay: Cytotoxicity against human M14 cells assessed as cell growth at 0.01 uM after 48 hrs by sulforhodamine B assay relative to control; format: functional; settings: M14, 48 h, read-out: Activity
HCT-15 = assay: Cytotoxicity against human HCT15 cells assessed as cell growth at 100 uM after 48 hrs by sulforhodamine B assay relative to control; format: functional; settings: HCT-15, 48 h, read-out: Activity

`COc1ccc(-c2cc(/C=C/C(=O)c3cc(OC)c(OC)c(OC)c3)[nH]n2)cc1OC` was tested, and the growth at 100 µM (TK-10) was -94%, the growth at 1 µM (ACHN [1]) was 78% and the growth at 100 µM (HCC 2998 [2]) was -82%. It also gave a growth at 100 µM (NCI-H23) of -50%, a growth at 0.1 µM (HCT-116) of 88% and a GI50 (NCI-H522) of 1.33 µM. For the same molecule, the LC50 (NCI-H522) was 5.39 µM, the TGI (NCI-H522) was 2.68 µM and the growth at 10 µM (NCI-H322M) was -23%. For the same molecule, the growth at 1 µM (MDA-MB-231 [3]) was 67%, the GI50 (ACHN [4]) was 1.45 µM and the LC50 (ACHN [4]) was 5.5 µM. For the same molecule, the TGI (ACHN [4]) was 2.82 µM, the growth at 100 µM (SN12C) was -67% and the growth at 0.01 µM (HCC 2998 [5]) was 95%. The growth at 1 µM (BT-549) was 70%, the growth at 0.01 µM (DU-145) was 108% and the growth at 1 µM (MCF7) was 53%. The GI50 (MDA-MB-468) was 1.33 µM, the LC50 (MDA-MB-468) was 8.03 µM and the TGI (MDA-MB-468) was 3.27 µM. It also gave a growth at 0.1 µM (OVCAR-3) of 100%, a growth at 10 µM (786-0) of -94% and a GI50 (Malme-3M) of 2.32 µM. It also gave an LC50 (Malme-3M) of 47.5 µM, a TGI (Malme-3M) of 6.19 µM and a GI50 (OVCAR-8) of 2.55 µM. It also gave an LC50 (OVCAR-8) of 42.1 µM, a TGI (OVCAR-8) of 11.7 µM and a growth at 0.1 µM (MOLT-4) of 95%. It also gave a growth at 100 µM (UACC-257 [6]) of -94%, a growth at 1 µM (U-251) of 65% and a growth at 100 µM (SF-539) of -87%. It also gave a growth at 1 µM (COLO 205) of 89%, a growth at 1 µM (K562) of 43% and a growth at 10 µM (UACC-257 [7]) of -64%. The growth at 1 µM (T47D) was 51%, the growth at 0.01 µM (UO-31) was 88% and the IC50 (MDA-MB-231 [8]) was 2 µM. For the same molecule, the growth at 0.1 µM (SF-268) was 93%, the growth at 100 µM (SK-MEL-5 [9]) was -98% and the growth at 1 µM (HOP-62) was 71%. It also gave a growth at 0.01 µM (SK-MEL-5 [10]) of 101%, a growth at 0.01 µM (M14) of 96% and a growth at 100 µM (HCT-15) of -49%.
